One assay deals with SF-539. The experiment in a line: Growth inhibition of human SF539 cells assessed as cell growth at 10^-5 M incubated for 48 hrs by sulforhodamine B assay relative to control. In kind it is functional. The following applies: SF-539, 48 h, read-out: Activity.
In the next assay the test system is HOP-62. The assay is described as follows: Growth inhibition of human HOP62 cells assessed as cell growth at 10^-5 M incubated for 48 hrs by sulforhodamine B assay relative to control. It counts as functional. As to conditions: HOP-62, 48 h, read-out: Activity.
Another assay deals with HOP-92. The experiment in a line: Growth inhibition of human HOP92 cells assessed as cell growth at 10^-4 M incubated for 48 hrs by sulforhodamine B assay relative to control. It counts as functional. As to conditions: HOP-92, 48 h, read-out: Activity.
For another assay, the system named is COLO 205. The experiment in a line: Growth inhibition of human COLO205 cells assessed as cell growth at 10^-6 M incubated for 48 hrs by sulforhodamine B assay relative to control. The following applies: COLO 205, 48 h, read-out: Activity. In kind it is functional.
The test system of assay [1] is Homo sapiens. The assay is described as follows: Antitumor activity against human MDA-MB-231-LM2 cells xenografted in SCID mouse assessed as decrease in tumor size at 0.3 mg/kg, it 3 times a week for 2 consecutive weeks starting 10 days post inoculation. It counts as functional, organism-based.
Assay [2] is described as follows: Antitumor activity against human MDA-MB-231-LM2 cells xenografted in SCID mouse assessed as tumor weight at 0.3 mg/kg, it 3 times a week for 2 consecutive weeks starting 10 days post inoculation measured at day 35 (reference value: 551 +/- 74 mg). In kind it is functional.
The test system of assay [3] is Homo sapiens. The experiment in a line: Antitumor activity against human MDA-MB-231-LM2 cells xenografted in SCID mouse assessed as inhibition of lung metastasis at 0.3 mg/kg, it 3 times a week for 2 consecutive weeks starting 10 days post inoculation measured at day 34. It counts as functional, organism-based.

Activity calls are given as the source filed them. No cut-off for these calls is given here.

Results on 3 molecules are retold here after ChEMBL document CHEMBL4270599, “Synthesis of a 3'-C-ethynyl-β-d-ribofuranose purine nucleoside library: Discovery of C7-deazapurine analogs as potent antiproliferative nucleosides” (Eur J Med Chem, 2018).

Turning to `C#C[C@@]1(O)[C@@H](CO)O[C@@H](n2cc(F)c3c(N)ncnc32)[C@@H]1O`, the growth at 10 µM with SF-539 is -23%; with HOP-62, -4%. In the assay on HOP-92, the growth at 100 µM was -47%. In addition, the growth at 1 µM with COLO 205 came out at 7%.

With `C#C[C@@]1(O)[C@@H](CO)O[C@@H](n2ccc3c(N)ncnc32)[C@@H]1O`, the growth at 10 µM with SF-539 was -48%; in the assay on HOP-62 it was -9%. In addition, the growth at 100 µM in the assay with HOP-92 was -87%. In addition, the growth at 1 µM with COLO 205 came out at 40%.

As for `C#C[C@@]1(O)[C@@H](CO)O[C@@H](n2cc(Cl)c3c(N)ncnc32)[C@@H]1O`, the result with Homo sapiens [1] and in the assay on Homo sapiens [3] was Active. The Activity in assay [2] amounted to 241 mg.
